Key:
Type in all cases: cell-based
[1] = test system: A2185 and A2352 cells; assay: Viability assay (methylene blue), two BRAF melanoma cells; details: for viability at 10 µM / cell viability (percentage of DMSO control): active below 40%, moderate below 80%, not active above 80%; for viability at 10 µM: read-out: cell viability (percentage of DMSO control); for activity in SAR summary of FIGS. 10A-10C (cell viability): comparison with Compound Z2 or named analog; for cell viability at lower concentration: 3 μM; for cell viability, dose response: 0.1-10 μM
Procedure: FIGS. 10A, 10B and 10C present data from screening the 20 analogs of Compound Z2 (“C-compounds”) showing three particularly active anti-proliferative compounds. […] A2185 and A2352 cells were grown in 1% FCS containing DMSO (0.1%), EPE peptide, Compound Z56, Compound Z2 or C-compounds (10 μM), for 72 hours. Compounds were categorized according to activity: (1) active, below 40%; (2) moderate activity, below 80%; (3) not active, above 80%. […] A2185 and A2352 cells were grown in 1% FCS containing DMSO (0.1%), EPE peptide (10 μM), compounds Z56, Z2 or selected C-compounds (3 μM), for 72 hours. Empty squares/circles represent individual data points of proliferation. Full squares/circles indicate average proliferation of 2 independent experiments in triplicate±SE. Bold horizontal line defines arbitrary activity threshold of activity below 40%. FIG. 10C presents dose response curves of active C-compounds compounds. A2185 and A2352 were grown in 1% FCS media containing DMSO (0.1%), EPE peptide, Z56, Z2 (10 μM) or compounds C17, C22 and C23 (0.1-10 μM), for 72 hours. […] Cell viability was measured by staining with methylene blue. Data presented as percentage of DMSO control. Bar graphs represent average of 2 independent experiments done in triplicates ±SE.
FIG. 13 presents a graph showing the effect of analogs of Compound C17 (“D-compounds”) on cell viability at a concentration of 10 μM. A2185 and A2352 cells were grown in 1% FCS media containing DMSO (0.1%) EPE peptide (10 μM), Compounds Z56, Z2, C17 (10 μM) as controls, and D-Compounds (10 μM), for 72 hours. Viable cells were measured by staining with methylene blue. Bar graphs represent average of 2 independent experiments done in triplicates. Data presented as percentage of DMSO proliferation ±standard error.
FIG. 14 presents a graph showing the effect of analogs of Compound C17 (“D-compounds”) on cell viability at a concentration of 1 μM. A2185 and A2352 cells were grown in 1% FCS media containing DMSO (0.1%), EPE peptide (10 μM), Compounds Z56, Z2 and C17 (1 and 10 μM) as controls, and D-compounds (1 μM), for 72 hours. Viable cells were measured by staining with methylene blue. Bar graphs represent average of 2 independent experiments done in triplicates. Data presented as percentage of DMSO proliferation ±standard error.
(§1) Cells were seeded at low confluence into 24, 48 or 96-well plates in complete medium. After 24 hours, medium was replaced by 1% FCS (fetal calf serum) containing appropriate treatments. Fresh medium containing the same agents was replaced every day. After 72 or 96 hours of treatment, cells were fixed with 4% formaldehyde overnight at 23° C., washed once with 0.1 M borate buffer (pH 8.5) for 10 minutes, and stained with of 1% methylene blue in 0.1 M borate buffer (pH 8.5) for 30 minutes. Excess stain was washed out with distilled water. Color was extracted by adding 0.1 M HCl (3 hours, 23° C.), and absorbance measured at 595 nm in an ELISA reader. For time course experiments, attached cells were fixed and measured at 0, 24, 48, 72 and 96 hours. For dose-response experiments, cells were treated with indicated concentrations of reagent, fixed and stained after 72 hours as above.
The ability of the selected compounds to reduce cell viability of two BRAF melanoma cells (A2185 and A2352) was evaluated. Initially, all compounds were assayed at a relatively high concentration of 10 μM.

[2] = test system: ERK1/2 nuclear translocation; assay: Determination of ERK1/2 localization by fluorescence microscopy after TPA stimulation; details: 10 μM, 2 hours; TPA 100 nM, 15 minutes; A2185 and A2352 cells
Procedure: Determination of Protein Localization by Fluorescence Microscopy:
Indicated cells were seeded on coverslips (coated with 0.001% w/v poly-L-lysine or not, depending on the cell line) at 50% confluency. After the indicated treatment, cells were fixed in 4% paraformaldehyde/PBS for 20 minutes on an ice surface, permeabilized with 0.1% Triton X-100/PBS for 5 minutes at 23° C., then blocked in 2% BSA/PBS for 30 minutes at 23° C. The fixed cells were sequentially incubated with appropriate antibodies (in 2% BSA/PBS, 1.5 hour), washed 3 times with PBS^−/−, and followed by incubation with either Cy-2-conjugated or rhodamine-conjugated secondary antibodies (1:200) and with DAPI ([…]; 1:100) in 2% BSA/PBS for 45 minutes. Slides were analyzed and photographed by a fluorescence microscope (Olympus BX51, ×40). Background correction, and contrast adjustment of raw data images were performed using Photoshop (Adobe, CA, USA).
The effect of Z56 was compared with that of the inhibitory effect of EPE peptide on nuclear translocation of ERK1/2.
The effects of the compounds on ERK1/2 nuclear translocation were evaluated in three cell lines (HeLa cells and two melanoma cell lines, A2185 and A2352), by treating the cells with each compound for two hours, and determining nuclear translocation using fluorescent anti-ERK antibodies, according to procedures described hereinabove.

[3] = test system: Panc-1, AsPC-1, CFPAC-1, MIA PaCa-2, Capan-1, Capan-2 and BxPC-3 pancreatic cancer cells; assay: Viability assay (methylene blue), pancreatic cancer cell lines
Procedure: FIGS. 6A and 6B present data showing that Compound Z56 prevents proliferation of pancreatic cancer cells. […] Panc-1, AsPC-1, CFPAC-1, Mia PaCa-2, Capan-1, Capan-2 (Ras-transformed) and BxPC-3 (Ras-wild type) pancreatic cancer cells were treated with either EPE peptide (10 μM; middle bars) or Z56 (3 μM; right bars) or DMSO control (0.1%; left bars) in 1% FCS for 72 hours. […] Panc-1, AsPC-1, BxPC-3 and Mia PaCa-2 cells grown in 1% FCS medium containing either EPE peptide (10 μM), 56 (3 μM), PLX4032 (1 μM), PD184352 (5 μM) or DMSO control (0.1%). The graphs present the kinetics of cell proliferation at the indicated times after the treatment started. Quantification of all viable cells was done by methylene blue and repeated 3 times in triplicates. All results presented as a fold change of the initial cell number and represent averages ±SE.
as §1
Activating mutations in Ras are found in more than 95% of pancreatic cancers where signaling through both Raf and Akt pathway drives cancer progression [Campbell et al., Cancer Res 2007, 67:2098-2106]. However, no effective treatments that target this mutant protein have reached the clinic to date, and pancreatic ductal adenocarcinoma remains an almost universally fatal disease [Bryant et al., Trends Biochem Sci 2014, 39:91-100]. Therefore, treating these pancreatic cancer cells downstream of Ras, without overactivating the Akt pathway, should be at least partially beneficial. The effect of Compound Z56 (and EPE peptide) on cell viability of Ras-transformed (and Ras-wild type) pancreatic cancer cells was determined, using a variety of cell lines.
The effects of Compound Z56 on the viability of pancreatic cancer cell lines at various times after treatment was compared with those of PLX4032 (a B-Raf inhibitor) and PD184352 (a MEK1/2 inhibitor).

Structure (SMILES) | activity in SAR summary of FIGS. 10A-10C (cell viability) [1] | cell viability (percentage of DMSO control) ([1]; 10 μM, 72 hours, 1% FCS) | other results
O=C(NC1C=CS(=O)(=O)C1)c1ccccc1 (stereo not drawn) [Compound C2] | less active |  | viability at 10 µM ([1]; 10 μM, 72 hours, 1% FCS): < 80%
O=C(OC1CS(=O)(=O)CC1Br)c1ccccc1 (stereo not drawn) [Compound C22] | far more active than Compound C6 |  | nuclear accumulation of ERK1/2 upon TPA stimulation [2]: inhibited; cell viability at lower concentration ([1]; 72 hours, 1% FCS): at least as potent as Compound Z2; viability at 10 µM ([1]; 10 μM, 72 hours, 1% FCS): < 40%; cell viability, dose response ([1]; 72 hours, 1% FCS): dose dependent manner
O=S1(=O)C=CC(O)C1 (stereo not drawn) [Compound C4] |  | did not exhibit significant activity | 
O=C(OC1CCS(=O)(=O)C1)c1ccnc(OCc2ccccc2)c1 (stereo not drawn) [Compound C16] |  | did not exhibit significant activity | 
O=S1(=O)C=CC2ON=C(c3c(Cl)cccc3Cl)C21 (stereo not drawn) [Compound C23] |  |  | nuclear accumulation of ERK1/2 upon TPA stimulation [2]: inhibited; cell viability at lower concentration ([1]; 72 hours, 1% FCS): at least as potent as Compound Z2; viability at 10 µM ([1]; 10 μM, 72 hours, 1% FCS): < 40%; cell viability, dose response ([1]; 72 hours, 1% FCS): dose dependent manner
CCOC(=O)c1ccc(NC2C=CS(=O)(=O)C2)cc1 (stereo not drawn) [Compound C1] | lower activity (relative to Compound Z2) |  | viability at 10 µM ([1]; 10 μM, 72 hours, 1% FCS): < 40%
Cc1ccccc1OC1CCS(=O)(=O)C1 (stereo not drawn) [Compound C20] | lower activity (relative to Compound Z2) | did not exhibit significant activity | 
O=S1(=O)CCC(Oc2ccccc2)C1 (stereo not drawn) [Compound C5] |  |  | viability at 10 µM ([1]; 10 μM, 72 hours, 1% FCS): < 80%
CC(C)OC(=O)c1ccc(NC(=O)CC2C=CS(=O)(=O)C2)cc1 (stereo not drawn) [Compound C14] | lower activity (relative to Compound Z2) | did not exhibit significant activity | 
O=S1(=O)C=CC2ON=C(c3cc(Cl)cc(Cl)c3)C21 (stereo not drawn) [Compound C6] | inactive | did not exhibit significant activity | 
O=S1(=O)C=CC2ON=C(c3cccnc3)C21 (stereo not drawn) [Compound D13] |  |  | anti-viability activity ([1]; 10 μM, 72 hours, 1% FCS): higher activity than did Compound D7
Cn1ccc2c(C(=O)OC3CCS(=O)(=O)C3)cccc21 (stereo not drawn) [Compound C32] |  | did not exhibit significant activity | 
O=C(CCc1ccccc1)OC1C=CS(=O)(=O)C1 (stereo not drawn) [Compound C3] |  |  | viability at 10 µM ([1]; 10 μM, 72 hours, 1% FCS): < 80%
O=S1(=O)CCC(OCc2ccccc2)C1 (stereo not drawn) [Compound C8] | less active | did not exhibit significant activity | 
O=C(Nc1ccccc1)OC1C=CS(=O)(=O)C1 (stereo not drawn) [Compound C12] | less active | did not exhibit significant activity | 
Cc1ccc(OC2CCS(=O)(=O)C2)cc1 (stereo not drawn) [Compound C21] | lower activity (relative to Compound Z2) | did not exhibit significant activity | 
O=C(OC1CCCS(=O)(=O)C1)c1ccccc1F (stereo not drawn) [Compound C31] | inactive | did not exhibit significant activity | 
Cc1ccc(C(=O)OC2CCS(=O)(=O)C2)cc1 (stereo not drawn) [Compound C11] | inactive | did not exhibit significant activity | 
O=C(NOCC1CC1)c1ccc(F)c(F)c1Nc1ccc(I)cc1Cl [PD184352] |  |  | viability, time course ([3]; 5 μM, all tested cell lines (Panc-1, AsPC-1, BxPC-3, Mia PaCa-2)): reduced the viability
CCCS(=O)(=O)Nc1ccc(F)c(C(=O)c2c[nH]c3ncc(-c4ccc(Cl)cc4)cc23)c1F [PLX4032] |  |  | proliferation, time course ([3]; 1 μM, Ras-mutated AsPC-1 cells): to some extent; viability, time course ([3]; 1 μM, other Ras-transformed pancreatic cancer cells (Panc-1, Mia PaCa-2)): not affecting the viability
CS(=O)(=O)CCOC(=O)c1cccc(Br)c1 [Compound C19] | inactive | did not exhibit significant activity | 
O=C(OC1CCCS(=O)(=O)C1)c1ccc(F)cc1 (stereo not drawn) [Compound C15] | inactive | did not exhibit significant activity | 
